Assay results as given in patent US9827190B2, “Intradermal delivery of immunological compositions comprising toll-like receptor 7 agonists” (GLAXOSMITHKLINE BIOLOGICALS SA, priority 2013, dated 2017).

Test system: X181 H1N1 Cal, X187 H3N2 Perth and B/Brisbane
Type: in vivo, Balb/c mice
Conditions: adjuvant dose 100 μg, 20 μl

`Cc1ccc2c(c1)nc(N)c1ncc(CCc3ccc(OCCOCCOCCC(F)(F)P(=O)(O)O)cc3C)cc12` [T1b] was tested, and the “immune response compared to both intradermal or intramuscular immunization using antigen alone” value was “significantly improved immune response”.
